Measured values taken from patent publication US7235563B2, “Spirocyclic compounds useful as modulators of nuclear hormone receptor function” (Bristol-Myers Squibb Company, priority 2004, dated 2007).
Where two headings read alike, the source gives them in different places.

Legend:
[1] = test system: wild type AR (MDA 453 cells); conditions: read-out: Kd for [3H]-DHT, Scatchard analysis
Method: For the saturation analysis, the difference between the total binding and the non-specific binding, is defined as specific binding.
[formula] After correcting for non-specific binding, IC50 values are determined. […]

AR [2] = molecular target: T1, AR (Rattus norvegicus, UniProt P15207)
T1 sequence (P15207 1-902): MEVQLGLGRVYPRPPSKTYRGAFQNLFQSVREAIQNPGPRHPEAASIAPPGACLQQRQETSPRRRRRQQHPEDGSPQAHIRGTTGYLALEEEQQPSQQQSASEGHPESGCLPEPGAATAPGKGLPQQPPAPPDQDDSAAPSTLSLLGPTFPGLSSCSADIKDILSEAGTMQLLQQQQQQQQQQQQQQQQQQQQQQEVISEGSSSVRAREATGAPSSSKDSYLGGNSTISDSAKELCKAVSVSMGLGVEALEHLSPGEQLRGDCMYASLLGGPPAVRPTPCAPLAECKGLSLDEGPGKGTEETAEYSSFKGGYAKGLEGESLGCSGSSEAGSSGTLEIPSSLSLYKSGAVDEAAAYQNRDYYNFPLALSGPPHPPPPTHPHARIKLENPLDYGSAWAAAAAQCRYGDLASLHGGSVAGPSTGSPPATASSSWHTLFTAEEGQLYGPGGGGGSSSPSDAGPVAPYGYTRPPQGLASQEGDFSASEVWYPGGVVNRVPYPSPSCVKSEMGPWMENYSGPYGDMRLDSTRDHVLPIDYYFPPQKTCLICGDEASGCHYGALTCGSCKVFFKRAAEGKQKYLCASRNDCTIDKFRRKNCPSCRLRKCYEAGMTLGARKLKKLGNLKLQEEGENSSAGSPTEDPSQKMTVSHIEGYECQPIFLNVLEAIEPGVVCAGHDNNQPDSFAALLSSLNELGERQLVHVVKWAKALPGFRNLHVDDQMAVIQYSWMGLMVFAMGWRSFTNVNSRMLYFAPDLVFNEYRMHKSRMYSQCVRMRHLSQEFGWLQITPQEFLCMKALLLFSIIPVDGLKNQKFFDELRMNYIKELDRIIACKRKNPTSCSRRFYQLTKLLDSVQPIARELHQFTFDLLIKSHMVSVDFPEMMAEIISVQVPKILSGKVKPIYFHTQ

AR [3] = molecular target: T1, AR; remark: listed apart in the source
Excerpt: The basis of this assay lies in the well-defined action of androgenic agents on the maintenance and growth of muscle tissues and sexual accessory organs in animals and man. […] J. Anat. […] I. Quantitative data” Boll.-Soc. Ital. Biol. Sper. […] II. Electron-microscopic observations” Boll.-Soc. Ital. Biol. Sper. […] Castration results in rapid involution and atrophy of the prostate and seminal vesicles. This effect can be reversed by exogenous addition of androgens. Since both the levator ani muscle and the male sex organs are the tissues most responsive to the effects of androgenic agents, this model is used to determine the androgen dependent reversal of atrophy in the levator ani muscle and the sex accessory organs in immature castrated rats. […] Control vehicle • 2.
The gain and loss of sexual organ weight reflect the changes of the cell number (DNA content) and cell mass (protein content), depending upon the serum androgen concentration. […] Therefore, measurement of organ wet weight is sufficient to indicate the bioactivity of androgens and androgen antagonist.

glucocorticoid receptor = glucocorticoid receptor (Homo sapiens, UniProt P04150); conditions: concentration of ≦10 μM; 10 ng/ml PMA; A549 cells
Method: Cells are plated the day before the assay at approximately 40000 cells/well. […] Activity is measured by analysis in a luminometer as compared to control experiments treated with buffer or dexamethasome.

glucocorticoid receptor, sequence (P04150 whole entry): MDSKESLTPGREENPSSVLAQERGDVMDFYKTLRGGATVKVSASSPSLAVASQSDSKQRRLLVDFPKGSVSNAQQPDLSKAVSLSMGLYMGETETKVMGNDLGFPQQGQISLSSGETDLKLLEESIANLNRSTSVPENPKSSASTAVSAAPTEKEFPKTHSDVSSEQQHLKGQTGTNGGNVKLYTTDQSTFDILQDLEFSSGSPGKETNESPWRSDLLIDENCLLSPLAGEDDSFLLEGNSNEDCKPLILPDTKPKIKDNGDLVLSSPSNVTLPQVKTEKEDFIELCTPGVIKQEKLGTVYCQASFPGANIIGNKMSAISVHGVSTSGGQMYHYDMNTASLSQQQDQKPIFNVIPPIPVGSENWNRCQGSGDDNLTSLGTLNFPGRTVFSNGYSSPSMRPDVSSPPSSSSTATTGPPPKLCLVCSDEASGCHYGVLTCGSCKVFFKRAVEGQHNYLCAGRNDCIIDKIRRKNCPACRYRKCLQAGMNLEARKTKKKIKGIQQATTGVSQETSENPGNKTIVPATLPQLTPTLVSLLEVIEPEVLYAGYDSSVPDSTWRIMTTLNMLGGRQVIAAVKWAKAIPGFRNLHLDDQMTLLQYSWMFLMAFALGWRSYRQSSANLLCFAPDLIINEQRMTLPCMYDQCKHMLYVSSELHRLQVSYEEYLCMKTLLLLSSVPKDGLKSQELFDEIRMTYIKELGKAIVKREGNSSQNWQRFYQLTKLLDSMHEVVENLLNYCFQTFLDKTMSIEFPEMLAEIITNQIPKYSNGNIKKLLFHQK

tritiated dihydrotestosterone [[^3H]-DHT]
Kd [1]: 0.7 nM

CCC(=O)O[C@H]1CC[C@H]2[C@@H]3CCC4=CC(=O)CC[C@]4(C)[C@H]3CC[C@]12C [TP, testosterone propionate]
potency relative to free T (AR [2]; TP versus free T): 10-30 fold
ED80 (AR [2]; immature castrated rat model): 0.1 mg
EC50 (increase in organ weight) (AR [2]; immature castrated rats, dosing for 3 days): ~0.03 mg
potency relative to free T (AR [3]; TP versus free T): 10-30 fold
EC50 (increase in organ weight) (AR [3]; castrated rats, dosing for 3 days): ~0.03 mg

C[C@@H]1C[C@H]2[C@@H]3CCC4=CC(=O)C=C[C@]4(C)[C@@]3(F)[C@@H](O)C[C@]2(C)[C@@]1(O)C(=O)CO [dexamethasone]
suppression of activity (% inhibition of the reporter system vs buffer control with PMA) (glucocorticoid receptor): 65%
